These molecules were tested against T1, Pol theta (1-899) (Homo sapiens, UniProt O75417) (assay: Pol theta ATPase activity, NADH oxidation-coupled enzymatic assay (ATPase NADH coupling: Standard Screening: hPolQ)). Details: Pol theta (1-899) 5 nM, NADH oxidation-coupled ATPase assay; compounds of Table 3.
T1 construct: Pol theta (1-899) (5 nM) in assay buffer
Type: biochemical
Method: The ability of the compounds of Formula (I) or Table 1 to inhibit ATPase activity of Pol theta (1-899) was determined using the assay described below. Pol Theta ATPase activity was determined by measuring the rate of ATP turn over in a NADH oxidation-coupled enzymatic assay. 10-point dilution series of compounds were used in a 384 well format for the inhibition assays. Pol theta (1-899) (5 nM) in assay buffer (20 mM Tris HCl (pH 7.80), 80 mM KCl, 10 mM MgCl2, 1 mM DTT, 0.01% BSA, 0.01% Tween, 5% glycerol) was transferred to the test wells (20 μL), except the low control wells (20 μL of assay buffer was added to the low control wells). The plate was then incubated at room temperature for 15 min. An equal volume (20 μL) of 100 μM ATP, 300 nM […] (single-stranded DNA (ssDNA) containing 50 thymine bases), 300 μM NADH, 6 mM PEP, 10 U/mL lactate dehydrogenase and 20 U/mL pyruvate kinase in assay buffer was added to all the test wells. The plate was then centrifuged at 1000 rpm for 1 min. The reaction was monitored for 60 min by measuring absorbance (λ=340 nm) in a Tecan Spark multimode plate reader every minute. The high control (DMSO with enzyme) with low absorbance intensity represents no inhibition of ATPase reaction while the low control (DMSO with buffer) with high absorbance intensity represents full inhibition of ATPase activity. Slope of the reaction progress curves were used to calculate the rate of ATP hydrolysis. The rates were used to determine the percent inhibition using a four-parameter inhibition model to generate IC50, Hill slope and max inhibition.

T1 sequence (O75417 1-899): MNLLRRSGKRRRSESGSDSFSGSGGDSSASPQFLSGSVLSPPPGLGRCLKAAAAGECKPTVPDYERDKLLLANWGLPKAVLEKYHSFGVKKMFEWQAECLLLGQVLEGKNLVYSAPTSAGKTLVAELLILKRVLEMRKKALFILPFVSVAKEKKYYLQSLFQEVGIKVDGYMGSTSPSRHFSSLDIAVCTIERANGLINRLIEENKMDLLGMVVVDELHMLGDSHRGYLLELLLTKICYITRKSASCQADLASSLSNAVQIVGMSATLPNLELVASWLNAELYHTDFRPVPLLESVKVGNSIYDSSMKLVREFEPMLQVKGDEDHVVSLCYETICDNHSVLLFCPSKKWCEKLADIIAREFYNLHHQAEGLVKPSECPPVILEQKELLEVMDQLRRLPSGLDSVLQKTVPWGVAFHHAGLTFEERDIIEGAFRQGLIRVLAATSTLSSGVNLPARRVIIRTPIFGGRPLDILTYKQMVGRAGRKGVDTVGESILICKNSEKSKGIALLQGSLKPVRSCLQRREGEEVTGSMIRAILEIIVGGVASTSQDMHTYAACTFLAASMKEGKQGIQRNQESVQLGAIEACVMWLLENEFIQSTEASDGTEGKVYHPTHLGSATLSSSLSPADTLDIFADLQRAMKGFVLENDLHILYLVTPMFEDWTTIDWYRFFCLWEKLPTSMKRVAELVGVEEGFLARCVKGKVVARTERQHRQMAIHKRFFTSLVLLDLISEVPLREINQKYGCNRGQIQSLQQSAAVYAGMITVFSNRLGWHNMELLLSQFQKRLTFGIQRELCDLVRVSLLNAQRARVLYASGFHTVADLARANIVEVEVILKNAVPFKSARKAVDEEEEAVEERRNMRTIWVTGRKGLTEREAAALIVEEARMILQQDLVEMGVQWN

Structure (SMILES)	IC50
COc1nnc(NC(=O)c2cnc(C)cc2-c2ccco2)s1 [Example 391, 4-(furan-2-yl)-N-(5-methoxy-1,3,4-thiadiazol-2-yl)-6-methylpyridine-3-carboxamide]	1000 to 10000 nM
COc1cnc(Cl)cc1-c1cc(C)ncc1C(=O)Nc1nnc(O[C@@H]2C[C@H](F)CN(C3COC3)C2)s1 (single isomer, unassigned) [Example 260]	≤ 200 nM
CC[S@+]([O-])c1cc(OC)c(-c2cc(C)ncc2C(=O)Nc2nnc(OC)s2)cc1Cl (single isomer, unassigned) [Example 312]	500 to 1000 nM
COc1nnc(NC(=O)c2cnc(C)cc2-c2ccc3[nH]ccc3c2)s1 [Example 352, 4-(1H-indol-5-yl)-N-(5-methoxy-1,3,4-thiadiazol-2-yl)-6-methylpyridine-3-carboxamide]	1000 to 10000 nM
COc1nnc(NC(=O)c2cnc(C)cc2-c2cncc(C#N)c2)s1 [Example 334, 5-cyano-N-(5-methoxy-1,3,4-thiadiazol-2-yl)-6′-methyl-[3,4′-bipyridine]-3′-carboxamide]	1000 to 10000 nM
CCCCc1ccc(-c2cc(C)ncc2C(=O)Nc2nnc(OC)s2)cc1 [Example 484, 4-(4-butylphenyl)-N-(5-methoxy-1,3,4-thiadiazol-2-yl)-6-methylpyridine-3-carboxamide]	1000 to 10000 nM
COc1nnc(NC(=O)c2cnc(C)cc2-c2ccccc2C)s1 [Example 389, N-(5-methoxy-1,3,4-thiadiazol-2-yl)-6-methyl-4-(2-methylphenyl)pyridine-3-carboxamide]	500 to 1000 nM
COc1cnc(Cl)cc1-c1cc(C)ncc1C(=O)Nc1nnc(OC2CCC23CCOC3)s1 (stereo not drawn) [Example 296, N-(5-((6-oxaspiro[3.4]octan-1-yl)oxy)-1,3,4-thiadiazol-2-yl)-2′-chloro-5′-methoxy-6-methyl-[4,4′-bipyridine]-3-carboxamide]	≤ 200 nM
COc1nnc(NC(=O)c2cnc(C)cc2-c2ccoc2)s1 [Example 390, 4-(furan-3-yl)-N-(5-methoxy-1,3,4-thiadiazol-2-yl)-6-methylpyridine-3-carboxamide]	1000 to 10000 nM
COc1nnc(NC(=O)c2cnc(C)cc2-c2ccc3cn(C)nc3c2)s1 [Example 417, N-(5-methoxy-1,3,4-thiadiazol-2-yl)-6-methyl-4-(2-methyl-2H-indazol-6-yl)nicotinamide]	1000 to 10000 nM
COc1nnc(NC(=O)c2cnc(C)cc2-c2cc(F)cnc2OC)s1 [Example 431, 5-fluoro-2-methoxy-N-(5-methoxy-1,3,4-thiadiazol-2-yl)-6′-methyl-[3,4′-bipyridine]-3′-carboxamide]	500 to 1000 nM
COc1nnc(NC(=O)c2ccc(F)cc2-c2cc(Cl)ncc2OC)s1 [Example 266, 2-(2-chloro-5-methoxypyridin-4-yl)-4-fluoro-N-(5-methoxy-1,3,4-thiadiazol-2-yl)benzamide]	≤ 200 nM
COc1cnc(C)c(F)c1-c1cc(C)ncc1C(=O)Nc1nnc(O[C@H]2CO[C@H]3OCC[C@H]32)s1 [Example 243, 3′-fluoro-N-(5-(((3R,3aS,6aR)-hexahydrofuro[2,3-b]furan-3-yl)oxy)-1,3,4-thiadiazol-2-yl)-5′-methoxy-2′,6-dimethyl-[4,4′-bipyridine]-3-carboxamide]	≤ 200 nM
CNS(=O)(=O)c1ccc(-c2cc(C)ncc2C(=O)Nc2nnc(OC)s2)cc1 [Example 384, N-(5-methoxy-1,3,4-thiadiazol-2-yl)-6-methyl-4-[4-(methylsulfamoyl)phenyl]pyridine-3-carboxamide]	1000 to 10000 nM
COc1nnc(NC(=O)c2cnc(C)cc2-c2cncc(C(=O)N(C)C)c2)s1 [Example 483, N3′-(5-methoxy-1,3,4-thiadiazol-2-yl)-N5,N5,6′-trimethyl-[3,4′-bipyridine]-3′,5-dicarboxamide]	1000 to 10000 nM

Same assay, conditions: Table 4; Pol theta (1-899) 5 nM, ATP, dT50 ssDNA

Structure (SMILES)	IC50
COc1nnc(NC(=O)c2cn3ccnc3cc2-c2c(F)cccc2OC)s1 [Example 50, 7-(2-fluoro-6-methoxyphenyl)-N-(5-methoxy-1,3,4-thiadiazol-2-yl)imidazo(1,2-a)pyridine-6-carboxamide]	1000 to 10000 nM
COc1cnc(Cl)cc1-c1cc(C)ncc1C(=O)Nc1nnc(O[C@H]2CCO[C@@H]2C)s1 (single isomer, unassigned) [Example 77, 2′-chloro-5′-methoxy-6-methyl-N-(5-(((2r,3s)-2-methyltetrahydrofuran-3-yl)oxy)-1,3,4-thiadiazol-2-yl)-(4,4′-bipyridine)-3-carboxamide]	≤ 200 nM
COc1cnc(Cl)cc1-c1cc(C)ncc1C(=O)Nc1nnc(O[C@H]2CC[C@@H](O)CC2)s1 (single isomer, unassigned) [Example 26, 2′-chloro-N-(5-(((1s,4s)-4-hydroxycyclohexyl)oxy)-1,3,4-thiadiazol-2-yl)-5′-methoxy-6-methyl-[4,4′-bipyridine]-3-carboxamide]	≤ 200 nM
COc1nnc(NC(=O)c2cnc(C)cc2-c2cc(C)ncc2OC)s1 [Example 8]	≤ 200 nM
COc1nnc(NC(=O)c2cnc(C)cc2-c2cc([C@H](C)O)ncc2OC)s1 (single isomer, unassigned) [Example 68]	1000 to 10000 nM

Same assay, conditions: Table 5; Pol theta (1-899) 5 nM, ATP, dT50 ssDNA

Structure (SMILES)	IC50
COc1cnc(Cl)cc1-c1cc(C)ncc1C(=O)Nc1nnc(O[C@H]2CC[C@H](CO)CC2)s1 [Example 168, 2′-chloro-N-(5-(((1r,4r)-4-(hydroxymethyl)cyclohexyl)oxy)-1,3,4-thiadiazol-2-yl)-5′-methoxy-6-methyl-(4,4′-bipyridine)-3-carboxamide]	≤ 200 nM
COc1cnc(Cl)c(F)c1-c1cc(C)ncc1C(=O)Nc1nnc(O[C@H]2CC[C@H](O)CC2)s1 [Example 211, 2′-chloro-3′-fluoro-N-(5-(((1r,4r)-4-hydroxycyclohexyl)oxy)-1,3,4-thiadiazol-2-yl)-5′-methoxy-6-methyl-(4,4′-bipyridine)-3-carboxamide]	≤ 200 nM
COc1cnc(Br)cc1-c1cc(C)ncc1C(=O)Nc1nnc(OC2COC2)s1 [Example 188, 2′-bromo-5′-methoxy-6-methyl-N-(5-(oxetan-3-yloxy)-1,3,4-thiadiazol-2-yl)-(4,4′-bipyridine)-3-carboxamide]	≤ 200 nM
COc1cnc(Cl)c(F)c1-c1cc(C)ncc1C(=O)Nc1nnc(O[C@H]2CC[C@H](OC)CC2)s1 (single isomer, unassigned) [Example 153, 2′-chloro-3′-fluoro-5′-methoxy-N-(5-(((1r,4r)-4-methoxycyclohexyl)oxy)-1,3,4-thiadiazol-2-yl)-6-methyl-(4,4′-bipyridine)-3-carboxamide]	≤ 200 nM
COc1cnc(Cl)cc1-c1cc(C)ncc1C(=O)Nc1nnc(O[C@H]2C[C@@H]3CC[C@H]2O3)s1 (single isomer, unassigned) [Example 217]	≤ 200 nM
COc1cnc(Cl)cc1-c1cc(C)ncc1C(=O)Nc1nnc(OC2CCC3(CCCO3)CC2)s1 (single isomer, unassigned) [Example 174, N-(5-(((5r,8s)-1-oxaspiro(4.5)decan-8-yl)oxy)-1,3,4-thiadiazol-2-yl)-2′-chloro-5′-methoxy-6-methyl-(4,4′-bipyridine)-3-carboxamide]	≤ 200 nM

Same assay, conditions: Table 5; values given as bound; Pol theta (1-899) 5 nM, ATP, dT50 ssDNA

Structure (SMILES)	IC50
COc1nnc(NC(=O)c2cnc(C)cc2-c2cccc3scnc23)s1 [Example 98, 4-(benzo(d)thiazol-4-yl)-N-(5-methoxy-1,3,4-thiadiazol-2-yl)-6-methylnicotinamide]	> 10000 nM
